# Experimental data reported in US8278352B2, “Pesticide compositions and methods” (Commonwealth Scientific & Industrial Research Organisation, priority 2004, dated 2012).
# “Also recorded” adds a separate entry of the source. Structures can show the parent of a compound that is named as a salt.
# What was measured:
# [1] = test system: adults of Sitophilus oryzae; assay: Toxicity study on adults of Sitophilus oryzae (fumigation, mortality); format: in vivo; conditions: 25° C., 24 hours fumigation
# Procedure: The insect species studied were laboratory strains of the rice weevil Sitophilus oryzae present as the egg, larvae, pupae or adult and mixed aged cultures thereof in bulk stores of wheat.
# Toxicity studies of ethyl formate alone compared with ethyl formate and […] were conducted on adults of the rice weevil Sitophilus oryzae at 25° C. and 24 hours fumigation.
# [2] = test system: pupae of S. oryzae; assay: Emerging adult study on pupae of S. oryzae; format: in vivo, Sitophilus oryzae; conditions: 25° C.
# Procedure: Table 4 compares the toxicity of ethyl formate alone and ethyl formate+methyl isothiocyanate to pupae of S. oryzae at 25° C. after 6 hours fumigation at two concentrations.
# Table 5 compares the toxicity of ethyl formate alone and ethyl formate+methyl isothiocyanate to pupae of S. oryzae at 25° C. after 24 hours fumigation at two concentrations.
# [3] = test system: mixed aged cultures (egg, larvae and pupae) of S. oryzae; assay: Emerging adult study on mixed aged cultures of S. oryzae; format: in vivo; conditions: Sitophilus oryzae, 25° C., 6 hours fumigation, read-out: emerging adult population, % of control
# Procedure: Table 3 compares the toxicity of ethyl formate alone and ethyl formate+methyl isothiocyanate to mixed aged cultures (egg, larvae and pupae) of S. oryzae at 25° C. after 6 hours fumigation at two concentrations.
# [4] = 4 tonne outloading trial: fumigant concentration next day; conditions: 160 g/t, tray of wheat, overnight, 20° C.
# Procedure: During outloading, wheat was treated/fumigated with a 95:5 (w:w) ratio of ethyl formate+methyl isothiocyanate at a rate of 160 g/t. The treated wheat was then transferred by auger into a 4 tonne truck tray and then covered and held overnight (see FIG. 10).
# [5] = Stability of ethyl formate and methyl isothiocyanate formulation stored at 25° C.; format: physicochemical; conditions: for stability when formulated and stored: 25° C., 2 months; for percent of the original fumigant present (M/Mo): formulation stored at 25° C.
# Procedure: The stability of ethyl formate and methyl isothiocyanate as a fumigant formulation stored at 25° C. was assessed for a period of 1 day, 1 month and 2 months. […] This is also graphically represented in FIG. 1.
Compound,mortality ([1]; 5.9 mg/L),"mortality at 5.9 µg/mL ([1]; Sitophilus oryzae, 5.9 mg/L)","mortality at 11.8 µg/mL ([1]; Sitophilus oryzae, 11.8 mg/L)","emerging adult % ([2]; 34.8 mg/L, 24 hours fumigation)","emerging adult % ([2]; 67.4 mg/L, 6 hours fumigation)","emerging adult % ([2]; 67.4 mg/L, 24 hours fumigation)","emerging adult % ([2]; 101.1 mg/L, 6 hours fumigation)",activity at 67.4 µg/mL ([3]; 67.4 mg/L),activity at 101.1 µg/mL ([3]; 101.1 mg/L),concentration of fumigant component on the next day [4],stability when formulated and stored [5],percent of the original fumigant present (M/Mo) ([5]; 1 Day),percent of the original fumigant present (M/Mo) ([5]; 1 Month),percent of the original fumigant present (M/Mo) ([5]; 2 Months)
"CCOC=O [EtF, ethyl formate]",inactive; also recorded: unaffected,0%,48%,19%,24%,9%,12%,27%,5%,below TLV,stable,100%,102%,98.5%
"CN=C=S [MITC, methyl isothiocyanate]",,,,,,,,,,below TLV,stable,100%,98%,101.5%
